Data set [1] has as its target mV1_685 (ANAP) (Mus musculus, UniProt Q704Y3, E685X). Put plainly: Agonist activation of ANAP-incorporated channel, patch clamp. It counts as cell-based. In general terms: The patch-clamp technique gives a direct electrical read-out from membranes.
For data set [2], the target named is mV1_630 (ANAP) (Mus musculus, UniProt Q704Y3, S630X). The description is as above. It counts as cell-based.
In data set [3] the target is mV1_579 (ANAP) (Mus musculus, UniProt Q704Y3, C579X). The description is as above. It counts as cell-based.
For data set [4], the target named is pV1_241 (ANAP) (Ornithorhynchus anatinus, UniProt F7A7B4). The data set is described as above. It counts as cell-based, platypus.
Data set [5] has as its target platypus TRPV1 (pV1) (Ornithorhynchus anatinus, UniProt F7A7B4). The data set can be described thus: Agonist activation, patch clamp, HEK293T. The conditions noted are these: whole-cell, 3 mM. It counts as cell-based.
Data set [6] addresses pV1_643 (ANAP) (Ornithorhynchus anatinus, UniProt F7A7B4, S634X).
In data set [7] the target is mV1_651 (ANAP) (Mus musculus, UniProt Q704Y3, T651X). Put plainly: Agonist activation of ANAP-incorporated channel, patch clamp. It counts as cell-based.
The target of data set [8] is mV1_648 (ANAP) (Mus musculus, UniProt Q704Y3, L648X). The description is as above. It counts as cell-based.
The target of data set [9] is mV1_654 (ANAP) (Mus musculus, UniProt Q704Y3, Y654X). The data set is described as above. In kind it is cell-based.
In data set [10] the target is mV1_241 (ANAP) (Mus musculus, UniProt Q704Y3, K241X). Described as above. It counts as cell-based.
Data set [11] can be described thus: Emission peak of free ANAP at different temperatures. It counts as physicochemical. To be noted: n=3. An excerpt:
ANAP fluorescence was excited by the Ar laser with a 375/28 excitation filter, T400lp dichroic mirror, and 435LP emission filter on an inverted fluorescence microscope (Nikon TE2000-U) using a ×40 oil-immersion objective (numerical aperture (NA) 1.3). Emission spectrum of ANAP was imaged with an Acton SpectraPro 2150i spectrograph in conjunction with an Evolve 512 EMCCD camera. The emission peak value was found by fitting the spectrum with a skewed Gauss distribution.

Each structure is given as a SMILES string.

`NCCOB(c1ccccc1)c1ccccc1` [2APB, 2-aminoethoxydiphenyl borate]: the 2APB activation result in data set [1], in data set [2], in data set [3], in data set [4], in data set [6] and in data set [7] was “Yes” in each case. Moreover, the 2APB activation result in data set [8], in [9] and in data set [10] was “Yes” each time. For the same compound, the “activation of pV1 by 2-APB” value is given as “currents elicited” in data set [5] (listed as 2-APB) and “directly activated” in data set [5] (listed as 2-aminoethoxydiphenyl borate).

As for `CC(=O)c1ccc2cc(NCC(N)C(=O)O)ccc2c1` (stereo not drawn) [free ANAP, 3-(6-acetylnaphthalen-2-ylamino)-2-aminopropanoic acid], the “change of emission spectrum during heating” value in [11] was “no change”.

The values are drawn from publication PMC6513986, “Molecular basis for heat desensitization of TRPV1 ion channels” (Nature Communications, 2019).
